Consider 18 compounds from patent US9670227B2, “Thienopyrimidine derivatives, a process for their preparation and pharmaceutical compositions containing them” (LES LABORATOIRES SERVIER, priority 2013, dated 2017).

Like-named read-outs stand apart in the source and are kept apart here.

The target of one assay is Mcl-1 protein (UniProtKB primary accession number: Q07820) (Homo sapiens, UniProt Q07820). In words: Inhibition of Mcl-1 by fluorescence polarisation, Method 1. It counts as binding. Particulars: read-out: IC50 (M) Mcl-1 FP. An outline of the steps: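 Binding was measured as fluorescence polarisation of a fluorescein-labelled ligand (1 nM) displaced from Mcl-1 (5 nM), both final. Compounds ran as 11-point series with final DMSO at 5%.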
Mcl-1 protein, sequence (Q07820 whole entry): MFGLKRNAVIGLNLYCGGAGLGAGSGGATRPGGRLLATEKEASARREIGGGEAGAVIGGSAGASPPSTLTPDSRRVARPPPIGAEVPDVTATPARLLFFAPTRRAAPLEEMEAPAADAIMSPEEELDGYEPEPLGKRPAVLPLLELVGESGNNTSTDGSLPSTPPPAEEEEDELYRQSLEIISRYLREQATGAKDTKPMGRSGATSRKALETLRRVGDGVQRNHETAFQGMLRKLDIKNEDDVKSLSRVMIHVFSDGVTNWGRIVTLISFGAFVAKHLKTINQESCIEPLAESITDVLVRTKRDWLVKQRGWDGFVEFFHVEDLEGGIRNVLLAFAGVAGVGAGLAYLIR
Background: Polarisation of emitted light reports the rotation of a fluorescent probe.

Assay [1] concerns H929 multiple myeloma tumour line. The assay can be described thus: In vitro cytotoxicity, Microculture Tetrazolium Assay. Type of assay: cell-based. Particulars: H929 cells, 48 hours exposure, read-out: IC50 (μM) MTT H929. The method, then:
The cytotoxicity studies were carried out on the H929 multiple myeloma tumour line.
The cells are distributed onto microplates and exposed to the test compounds for 48 hours.

Setting [2] is: fluorescence polarisation test, Method 2 values are underlined in the patent (underlining not visible here).
Setting [3] is: Homo sapiens, NCI-H929, 48 h, MTT.
[4] abbreviates: fluorescence polarisation, Method 1, or Method 2.

Regarding `COCCN(C)c1nccc(COc2ccccc2CC(Oc2ncnc3sc(-c4ccc(F)cc4)c(-c4ccc(OCCN5CCN(C)CC5)c(Cl)c4C)c23)C(=O)O)n1` [Example 48, (2R)-2-{[(5Sa)-5-{3-chloro-2-methyl-4-[2-(4-methylpiperazin-1-yl)ethoxy]phenyl}-6-(4-fluorophenyl)thieno[2,3-d]pyrimidin-4-yl]oxy}-3-[2-({2-[(2-methoxyethyl)(methyl)amino]pyrimidin-4-yl}methoxy)phenyl]propanoic acid], the values for the IC50 (at Mcl-1 protein (setting [2]); in assay [1] (setting [3])) were 1.1e-08 M and 0.122 µM, respectively.
With `COc1ccccc1-c1nccc(COc2ccccc2CC(Oc2ncnc3sc(-c4ccc(OCc5ccc(Cl)cc5)cc4)c(-c4ccc(OCCN5CCN(C)CC5)c(Cl)c4C)c23)C(=O)O)n1` [Example 775, (2R)-2-[(6-{4-[(4-chlorobenzyl)oxy]phenyl}-(5Sa)-5-{3-chloro-2-methyl-4-[2-(4-methylpiperazin-1-yl)ethoxy]phenyl}thieno[2,3-d]pyrimidin-4-yl)oxy]-3-(2-{[2-(2-methoxyphenyl)pyrimidin-4-yl]methoxy}phenyl)propanoic acid], the IC50 on Mcl-1 protein (setting [4]) was 3.55e-09 M; in assay [1] (setting [3]), 0.039 µM.
Take `Cc1c(-c2c(-c3ccco3)sc3ncnc(OC(Cc4ccccc4NC(=O)OC(C)(C)C)C(=O)O)c23)ccc(OCCN2CCN(C)CC2)c1Cl` [Example 358, (2R)-3-{2-[(tert-butoxycarbonyl)amino]phenyl}-2-{[(5Sa)-5-{3-chloro-2-methyl-4-[2-(4-methylpiperazin-1-yl)ethoxy]phenyl}-6-(furan-2-yl)thieno[2,3-d]pyrimidin-4-yl]oxy}propanoic acid]: the IC50 at Mcl-1 protein (setting [2]) turned out to be 9.5e-09 M; in assay [1] (setting [3]) it was 1.61 µM.
Consider `CCn1nccc1COc1ccccc1CC(Oc1ncnc2sc(-c3ccc(F)c(F)c3)c(-c3ccc(OCCN4CCN(C)CC4)c(Cl)c3C)c12)C(=O)O` [Example 708, (2R)-2-{[(5Sa)-5-{3-chloro-2-methyl-4-[2-(4-methylpiperazin-1-yl)ethoxy]phenyl}-6-(3,4-difluorophenyl)thieno[2,3-d]pyrimidin-4-yl]oxy}-3-{2-[(1-ethyl-1H-pyrazol-5-yl)methoxy]phenyl}propanoic acid], for which the half-maximal inhibitory concentration (IC50) turned out to be 9.6e-09 M at Mcl-1 protein (setting [4]) and 0.055 µM in assay [1] (setting [3]).
In the case of `Cc1c(-c2c(-c3ccc(F)cc3)sc3ncnc(OC(Cc4ccccc4OCc4ccn(CC5CCCCC5)n4)C(=O)O)c23)ccc(OCCN2CCN(C)CC2)c1Cl` [Example 15, (2R)-2-{[(5Sa)-5-{3-chloro-2-methyl-4-[2-(4-methylpiperazin-1-yl)ethoxy]phenyl}-6-(4-fluorophenyl)thieno[2,3-d]pyrimidin-4-yl]oxy}-3-(2-{[1-(cyclohexylmethyl)-1H-pyrazol-3-yl]methoxy}phenyl)propanoic acid], the half-maximal inhibitory concentration (IC50) at Mcl-1 protein (setting [2]) is 3.7e-08 M; in assay [1] (setting [3]) it was 0.494 µM.
In the case of `COc1ccccc1-c1nccc(COc2ccccc2CC(Oc2ncnc3sc(-c4ccc(F)cc4)c(-c4ccc(OCCN5CCN(C)CC5)c(Cl)c4C)c23)C(=O)OCCN(C)C)n1` [Example 813, 2-(dimethylamino)ethyl (2R)-2-{[(5Sa)-5-{3-chloro-2-methyl-4-[2-(4-methylpiperazin-1-yl)ethoxy]phenyl}-6-(4-fluorophenyl)thieno[2,3-d]pyrimidin-4-yl]oxy}-3-(2-{[2-(2-methoxyphenyl)pyrimidin-4-yl]methoxy}phenyl)propanoate], the IC50 on Mcl-1 protein (fluorescence polarisation test, Method 1, or Method 2 where the value is underlined (underlining not visible)) worked out at 5.47e-09 M; in assay [1] (Homo sapiens, NCI-H929, 48 h, cell viability), 0.011 µM.
As to `Cc1c(-c2c(-c3ccco3)sc3ncnc(OC(Cc4ccccc4OCC4CCCC4)C(=O)O)c23)ccc(OCCN2CCN(C)CC2)c1Cl` [Example 239, (2R)-2-{[(5Sa)-5-{3-chloro-2-methyl-4-[2-(4-methylpiperazin-1-yl)ethoxy]phenyl}-6-(furan-2-yl)thieno[2,3-d]pyrimidin-4-yl]oxy}-3-[2-(cyclopentylmethoxy)phenyl]propanoic acid], the IC50 at Mcl-1 protein (setting [2]) turned out to be 1.1e-08 M; in assay [1] (setting [3]), 0.55 µM.
With `Cc1c(-c2c(-c3ccc(F)c(F)c3)sc3ncnc(OC(Cc4ccccc4OCc4ccnc(C(F)(F)F)n4)C(=O)O)c23)ccc(OCCN2CCN(C)CC2)c1Cl` [Example 707, (2R)-2-{[(5Sa)-5-{3-chloro-2-methyl-4-[2-(4-methylpiperazin-1-yl)ethoxy]phenyl}-6-(3,4-difluorophenyl)thieno[2,3-d]pyrimidin-4-yl]oxy}-3-(2-{[2-(trifluoromethyl)pyrimidin-4-yl]methoxy}phenyl)propanoic acid], the half-maximal inhibitory concentration (IC50) on Mcl-1 protein (setting [4]) was determined as 1.4e-08 M; in assay [1] (setting [3]), 0.042 µM.
In the case of `COc1ccc(-c2sc3ncnc(OC(Cc4ccccc4OCc4ccnc(-c5ccccc5OC)n4)C(=O)O)c3c2-c2ccc(OCCN3CCN(C)CC3)c(Cl)c2C)cc1` (single isomer, unassigned) [Example 761], the IC50 at Mcl-1 protein (setting [4]) stood at 1.07e-07 M; in assay [1] (MTT) it was 0.148 µM.
Regarding `COc1nccc(COc2ccccc2CC(Oc2ncnc3sc(-c4ccc(F)c(OCCO)c4)c(-c4ccc(OCCN5CCN(C)CC5)c(Cl)c4C)c23)C(=O)O)n1` [Example 597, (2R)-2-[((5Sa)-5-{3-chloro-2-methyl-4-[2-(4-methylpiperazin-1-yl)ethoxy]phenyl}-6-[4-fluoro-3-(2-hydroxyethoxy)phenyl]thieno[2,3-d]pyrimidin-4-yl)oxy]-3-{2-[(2-methoxypyrimidin-4-yl)methoxy]phenyl}propanoic acid], the 50% inhibitory concentration (IC50) on Mcl-1 protein (setting [4]) was found to be 6.2e-09 M; in assay [1] (setting [3]), 0.449 µM.
In the case of `COc1ccccc1CC(Oc1ncnc2sc(-c3cc(C)co3)c(-c3ccc(OCCN4CCN(C)CC4)c(Cl)c3C)c12)C(=O)O` [Example 529, (2R)-2-{[(5Sa)-5-{3-chloro-2-methyl-4-[2-(4-methylpiperazin-1-yl)ethoxy]phenyl}-6-(4-methylfuran-2-yl)thieno[2,3-d]pyrimidin-4-yl]oxy}-3-(2-methoxyphenyl)propanoic acid], the half-maximal inhibitory concentration (IC50) is 1.3e-08 M at Mcl-1 protein (setting [4]) and 0.308 µM in assay [1] (setting [3]).
For `COc1ccccc1CC(Oc1ncnc2sc(-c3ccc(F)c(C(F)(F)F)c3)c(-c3ccc(OCCN4CCN(C)CC4)c(Cl)c3C)c12)C(=O)O` [Example 531, (2R)-2-[(5Sa)-(5-{3-chloro-2-methyl-4-[2-(4-methylpiperazin-1-yl)ethoxy]phenyl}-6-[4-fluoro-3-(trifluoromethyl)phenyl]thieno[2,3-d]pyrimidin-4-yl)oxy]-3-(2-methoxyphenyl)propanoic acid], the IC50 on Mcl-1 protein (setting [4]) was determined as 3.5e-09 M; in assay [1] (setting [3]) it was 1.22 µM.
Take `Cc1c(-c2c(-c3ccc(F)o3)sc3ncnc(OC(Cc4ccccc4OCC(=O)NCc4ccccc4)C(=O)O)c23)ccc(OCCN2CCN(C)CC2)c1Cl` [Example 153, (2R)-3-{2-[2-(benzylamino)-2-oxoethoxy]phenyl}-2-{[(5Sa)-5-{3-chloro-2-methyl-4-[2-(4-methylpiperazin-1-yl)ethoxy]phenyl}-6-(5-fluorofuran-2-yl)thieno[2,3-d]pyrimidin-4-yl]oxy}propanoic acid]: the IC50 at Mcl-1 protein (setting [2]) amounted to 5e-09 M; in assay [1] (setting [3]), 0.146 µM.
With `Cc1c(-c2c(-c3ccc(F)cc3)sc3ncnc(OC(Cc4ccccc4OCc4cnccn4)C(=O)O)c23)ccc(OCCCC2CCCN2C)c1Cl` [Example 146, (2R)-2-{[(5Sa)-5-{3-chloro-2-methyl-4-[3-(1-methylpyrrolidin-2-yl)propoxy]phenyl}-6-(4-fluorophenyl)thieno[2,3-d]pyrimidin-4-yl]oxy}-3-[2-(pyrazin-2-ylmethoxy)phenyl]propanoic acid], the figures for the IC50 (on Mcl-1 protein (setting [2]); in assay [1] (setting [3])) were 3.5e-08 M and 1.16 µM, respectively.
Regarding `COc1ccccc1CC(Oc1ncnc2sc(-c3cc(F)c(F)c(F)c3)c(-c3ccc(OCCN4CCN(C)CC4)c(Cl)c3C)c12)C(=O)O` [Example 523, (2R)-2-{[(5Sa)-5-{3-chloro-2-methyl-4-[2-(4-methylpiperazin-1-yl)ethoxy]phenyl}-6-(3,4,5-trifluorophenyl)thieno[2,3-d]pyrimidin-4-yl]oxy}-3-(2-methoxyphenyl)propanoic acid], the figures for the half-inhibitory concentration (IC50) (at Mcl-1 protein (setting [4]); in assay [1] (setting [3])) were 1.8e-09 M and 0.532 µM, respectively.
For `CCCCn1nccc1COc1ccccc1CC(Oc1ncnc2sc(-c3ccc(C#N)cc3)c(-c3ccc(OCCN4CCN(C)CC4)c(Cl)c3C)c12)C(=O)O` [Example 600, (2R)-3-{2-[(1-butyl-1H-pyrazol-5-yl)methoxy]phenyl}-2-{[(5Sa)-5-{3-chloro-2-methyl-4-[2-(4-methylpiperazin-1-yl)ethoxy]phenyl}-6-(4-cyanophenyl)thieno[2,3-d]pyrimidin-4-yl]oxy}propanoic acid], in that order: 4.1e-09 M and 0.031 µM.
For the compound `Cc1c(-c2c(-c3ccc(F)o3)sc3ncnc(OC(Cc4ccccc4OCC(=O)NC4CCCC4)C(=O)O)c23)ccc(OCCN2CCN(C)CC2)c1Cl` [Example 152, (2R)-2-{[(5Sa)-5-{3-chloro-2-methyl-4-[2-(4-methylpiperazin-1-yl)ethoxy]phenyl}-6-(5-fluorofuran-2-yl)thieno[2,3-d]pyrimidin-4-yl]oxy}-3-{2-[2-(cyclopentylamino)-2-oxoethoxy]phenyl}propanoic acid], the concentration for half-maximal inhibition (IC50) on Mcl-1 protein (setting [2]) was 9.9e-09 M; in assay [1] (setting [3]) it was 0.19 µM.
Regarding `COc1ccnc(COc2ccccc2CC(Oc2ncnc3sc(-c4ccco4)c(-c4ccc(OCCN5CCN(C)CC5)c(Cl)c4C)c23)C(=O)O)c1` [Example 223, (2R)-2-{[(5Sa)-5-{3-chloro-2-methyl-4-[2-(4-methylpiperazin-1-yl)ethoxy]phenyl}-6-(furan-2-yl)thieno[2,3-d]pyrimidin-4-yl]oxy}-3-{2-[(4-methoxypyridin-2-yl)methoxy]phenyl}propanoic acid], the figures for the IC50 (on Mcl-1 protein (setting [2]); in assay [1] (setting [3])) were 1.4e-08 M and 0.346 µM, respectively.

One may read the IC50 as the point on the concentration scale where inhibition reaches its midpoint.
